Results from PMC4856263, “Probing the ATP Site of GRP78 with Nucleotide Triphosphate Analogs” (PLoS ONE, 2016).

Assays:
[1] = system: human ecto-nucleotidases (NTPDase1, 2, 3, 8 and NPP1 and 3); details: cited from earlier work
[2] = molecular target: T1, GRP78ATPase (ATPase domain of human GRP78, residues 26–407) (Homo sapiens, UniProt P11021); assay: Surface plasmon resonance (SPR) binding of nucleotides to immobilized GRP78ATPase; details: for binding to GRP78ATPase upon removal of Mg++ (in words): 5 mM EDTA; for Kd: 25 °C, mean ± SD, n = 3
T1 construct: GRP78ATPase (residues 26–407) was amplified from the full-length human GRP78; hexahistidine tag (pET28-MHL vector) (N); made in house; host or cells: E. coli BL-21(DE3)
Protocol: Successful transformants were grown in Luria Bertani broth (Sigma) for 16 hrs at 37°C, and then transferred to Terrific Broth (Sigma). Growth at 37°C continued until the OD600 reached ~3.0, whereupon the temperature was lowered to 18°C and protein expression was induced by the addition of 0.1 mM isopropyl β-D-thiogalactopyranoside. Sixteen hours post-induction, cells were collected by centrifugation and resuspended in binding buffer (30 mM Tris-HCl pH 7.5, 200 mM NaCl, 1 mM β-ME) supplemented with 0.1% octylphenoxypolyethoxyethanol, 1 mM benzamidine, and 1 mM phenylmethanesulfonyl fluoride. Cells were lysed by French press, and the lysates were clarified by centrifugation. The supernatant was loaded on to a nickel-nitrilotriacetic acid column pre-equilibrated with binding buffer. Following a wash step with binding buffer containing 30 mM imidazole, the bound protein was eluted using a linear gradient from 30 to 500 mM imidazole. The eluate was then loaded on to a 26/60 Superdex 200 size exclusion column (GE Healthcare) pre-equilibrated with 30 mM Tris-HCl pH 7.5, 200 mM NaCl and 1 mM β-ME. Target protein-containing fractions were pooled and concentrated to 30 mg/ml using 10-kDa centrifugal filter units (Amicon), and then frozen in aliquots at -80°C until further use
SPR measurements were performed on Biacore T200 instrument (GE Healthcare) at 25 °C. Purified GRP78ATPase was immobilized on a CM5 sensorchip using NHS/EDC coupling following the manufacturer protocol to a level of ~7000 RUs, a reference surfaces without immobilized GRP78ATPase served as a control for nonspecific binding and refractive index changes. […] Buffer alone injections were used as blanks. […] The running buffer was 10 mM HEPES, pH 7.4, 150 mM NaCl, 0.005% P20 and 2 mM MgCl2. Biacore equilibrium responses recorded at the end of the association step were used to determine the dissociation constant (Kd). Nonspecific signal binding was removed by subtracting a reference channel without GRP78ATPase. Binding responses at the different concentrations were globally fitted to a saturation-binding model in Prism 6 (GraphPad Software Inc., California).
The effect of Mg^++ on binding affinities was explored by repeating the same SPR protocol with two additional running buffers. The first running buffer contained no addition of Mg^++ to determine the effect of Mg^++ co-purified with GRP78ATPase (10 mM HEPES, pH 7.4, 150 mM NaCl and 0.005% P20), and the second running buffer contained 5 mM EDTA to chelate any Mg^++ present in the system (10 mM HEPES, pH 7.4, 150 mM NaCl, 0.005% P20 and 5 mM EDTA).

[3] = SPR running buffer untreated (no addition of either MgCl2 or EDTA)
[4] = SPR running buffer with 5 mM EDTA (Mg++ removed)
[5] = SPR running buffer with 2 mM MgCl2

T1 sequence (P11021 26-407): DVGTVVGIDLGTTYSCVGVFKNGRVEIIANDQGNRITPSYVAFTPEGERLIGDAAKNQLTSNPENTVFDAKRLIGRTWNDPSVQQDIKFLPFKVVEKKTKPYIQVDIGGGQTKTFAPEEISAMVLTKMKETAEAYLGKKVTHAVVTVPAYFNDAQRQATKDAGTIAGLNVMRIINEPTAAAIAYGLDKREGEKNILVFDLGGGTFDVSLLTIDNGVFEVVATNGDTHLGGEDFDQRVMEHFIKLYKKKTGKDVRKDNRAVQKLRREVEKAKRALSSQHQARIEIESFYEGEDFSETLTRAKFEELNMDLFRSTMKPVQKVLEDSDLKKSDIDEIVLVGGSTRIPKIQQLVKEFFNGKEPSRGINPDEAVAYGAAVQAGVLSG

Kd [2, 3] [µM] | Kd [2, 4] [µM] | Kd [2, 5] [µM] | Compound | hydrolysis by most human ecto-nucleotidases [1] | binding to GRP78ATPase upon removal of Mg++ (in words) [2] | affinity relative to ATP (in words) ([2]; purified GRP78ATPase, SPR)
750 | > 1000 | – | Nc1ncnc2c1ncn2[C@H]1C[C@H](O)[C@@H](COP(=O)(O)OP(=O)(O)OP(=O)(O)O)O1 [2'-deoxyATP] | – | nearly abolished the binding | –
0.78 | 9.8 | 0.45 | Nc1ncnc2c1ncn2[C@@H]1O[C@H](COP(=O)(O)OP(=O)(O)OP(=O)(O)O)[C@@H](O)[C@H]1O [ATP] | – | – | –
0.15 | 0.9 | 0.03 | Nc1ncnc2c1ccn2C1OC(COP(=O)(O)OP(=O)(O)OP(=O)(O)O)C(O)C1O (stereo not drawn) [7-deazaATP] | – | – | –

The next lines start with the compound.

Compound | Kd [2, 3] [µM] | Kd [2, 4] [µM] | Kd [2, 5] [µM] | hydrolysis by most human ecto-nucleotidases [1] | binding to GRP78ATPase upon removal of Mg++ (in words) [2] | affinity relative to ATP (in words) ([2]; purified GRP78ATPase, SPR)
Nc1ncnc2c1ncn2C1OC(COP(=O)(O)OP(=O)(O)C(Br)(Br)P(=O)(O)O)C(O)C1O (stereo not drawn) [AMPPCBrP] | – | – | – | cannot hydrolyze | – | –
Nc1ncnc2c1ncn2[C@@H]1O[C@H](COP(=O)(O)OP(=O)(O)CP(=O)(O)O)[C@@H](O)[C@H]1O [AMPPCP] | 52 | > 1000 | 59 | – | almost abolished binding | two-orders of magnitude lower
